Experiments:
Details in all cases: 72 h
CAL-148 [1] = tested on: CAL-148
Method: (§1)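 Drug sensitivity and resistance testing (DSRT) of breast cancer cell lines in 384-well plates, 5 concentrations in 10-fold dilutions over a compound-specific 10,000-fold range. After 72 h, cytotoxicity was read by CellTox Green fluorescence and viability by CellTiter-Glo luminescence (multiplexed), normalised to DMSO and benzethonium chloride controls. EC50 is the inflection point of the fitted dose-response curve (bottom asymptote free, so it can be relative for partial curves) and is censored at the highest tested concentration. Rows with DSS 0 (no meaningful response) were excluded.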

HCC1937 [2] = tested on: HCC1937
Method: as §1

CAL-85-1 [3] = tested on: CAL-85-1
Method: as §1

CAL-51 [4] = tested on: CAL-51
Method: as §1

MDA-MB-468 [5] = tested on: MDA-MB-468
Method: as §1

HCC1599 [6] = tested on: HCC1599
Outline: (§2)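 Breast cancer cell lines in 20 µl suspension were seeded onto 384-well plates that already held compound dissolved in 5 µl medium and were incubated for 72 h. Viability was measured by adding 2.5 µl CellTiter-Blue for 2 h at 37 °C and reading fluorescence at 560/590 nm. Each plate was normalised to vehicle and a positive kill control and checked by Z'-factor. EC50 was taken from a fitted percent-inhibition dose-response curve, censored at the highest concentration, and rows with a drug sensitivity score of zero were removed.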

HCC1143 [7] = tested on: HCC1143
Outline: as §2

Hs578T [8] = tested on: Hs578T
Outline: as §2

HCC1937 [9] = tested on: HCC1937; remark: listed apart in the source
Outline: as §2

CAL-120 [10] = tested on: CAL-120
Outline: as §2

MDA-MB-231 [11] = tested on: MDA-MB-231
Outline: as §2

SK-BR-3 [12] = tested on: SK-BR-3
Outline: as §2

BT-549 [13] = tested on: BT-549
Outline: as §2

MFM-223 [14] = tested on: MFM-223
Outline: as §2

MDA-MB-468 [15] = tested on: MDA-MB-468; remark: listed apart in the source
Outline: as §2

MDA-MB-453 [16] = tested on: MDA-MB-453
Outline: (§3)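 Breast cancer cell lines in 20 µl suspension were added to 384-well plates already holding compound at 5 concentrations, spaced in 10-fold steps across a compound-specific 10,000-fold range, and incubated for 72 h. CellTox Green fluorescence (485/520 nm) was read first to measure cell death, followed by CellTiter-Glo luminescence for viability after 10 min at room temperature. Each plate was normalised to 0.1 % DMSO and a positive kill control. EC50 values came from dose-response curve fits and were censored at the top concentration.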

MCF-10A [17] = tested on: MCF-10A
Outline: as §3

HCC1143 [18] = tested on: HCC1143; remark: listed apart in the source
Outline: as §3

CAL-148 [19] = tested on: CAL-148; remark: listed apart in the source
Outline: as §3

Hs578T [20] = tested on: Hs578T; remark: listed apart in the source
Outline: as §3

HCC1937 [21] = tested on: HCC1937; remark: listed apart in the source
Outline: as §3

MDA-MB-436 [22] = tested on: MDA-MB-436
Outline: as §3

CAL-120 [23] = tested on: CAL-120; remark: listed apart in the source
Outline: as §3

MDA-MB-231 [24] = tested on: MDA-MB-231; remark: listed apart in the source
Outline: as §3

DU-4475 [25] = tested on: DU-4475
Outline: as §3

CAL-85-1 [26] = tested on: CAL-85-1; remark: listed apart in the source
Outline: as §3

SK-BR-3 [27] = tested on: SK-BR-3; remark: listed apart in the source
Outline: as §3

BT-549 [28] = tested on: BT-549; remark: listed apart in the source
Outline: as §3

MFM-223 [29] = tested on: MFM-223; remark: listed apart in the source
Outline: as §3

CAL-51 [30] = tested on: CAL-51; remark: listed apart in the source
Outline: as §3

MDA-MB-453 [31] = tested on: MDA-MB-453; remark: listed apart in the source
Outline: as §2

CAL-148 [32] = tested on: CAL-148; remark: listed apart in the source
Outline: as §2

DU-4475 [33] = tested on: DU-4475; remark: listed apart in the source
Outline: as §2

CAL-85-1 [34] = tested on: CAL-85-1; remark: listed apart in the source
Outline: as §2

CAL-51 [35] = tested on: CAL-51; remark: listed apart in the source
Outline: as §2

MDA-MB-453 [36] = tested on: MDA-MB-453; remark: listed apart in the source
Method: as §1

MCF-10A [37] = tested on: MCF-10A; remark: listed apart in the source
Method: as §1

Hs578T [38] = tested on: Hs578T; remark: listed apart in the source
Method: as §1

MDA-MB-231 [39] = tested on: MDA-MB-231; remark: listed apart in the source
Method: as §1

BT-549 [40] = tested on: BT-549; remark: listed apart in the source
Method: as §1

HDQ-P1 = tested on: HDQ-P1
Method: as §1

MFM-223 [41] = tested on: MFM-223; remark: listed apart in the source
Method: as §1

HCC1599 [42] = tested on: HCC1599; remark: listed apart in the source
Outline: as §3

CAL-120 [43] = tested on: CAL-120; remark: listed apart in the source
Method: as §1

MDA-MB-436 [44] = tested on: MDA-MB-436; remark: listed apart in the source
Outline: as §2

| SMILES | EC50, CellTox Green (CAL-85-1 [3]) [nM] | EC50, CellTox Green (CAL-51 [4]) [nM] | EC50, CellTox Green (MDA-MB-468 [5]) [nM] | EC50, CellTiter-Blue viability (Hs578T [8]) [nM] | EC50, CellTiter-Blue viability (HCC1937 [9]) [nM] | EC50, CellTiter-Blue viability (CAL-120 [10]) [nM] | EC50, CellTiter-Blue viability (MDA-MB-231 [11]) [nM] | EC50, CellTiter-Blue viability (SK-BR-3 [12]) [nM] | EC50, CellTiter-Blue viability (BT-549 [13]) [nM] | EC50, CellTiter-Glo (MDA-MB-453 [16]) [nM] | EC50, CellTiter-Glo (HCC1143 [18]) [nM] | EC50, CellTiter-Glo (Hs578T [20]) [nM] | EC50, CellTiter-Glo (HCC1937 [21]) [nM] | EC50, CellTiter-Glo (MDA-MB-436 [22]) [nM] | EC50, CellTiter-Glo (CAL-120 [23]) [nM] | EC50, CellTiter-Glo (MDA-MB-231 [24]) [nM] | EC50, CellTiter-Glo (DU-4475 [25]) [nM] | EC50, CellTiter-Glo (CAL-85-1 [26]) [nM] | EC50, CellTiter-Glo (BT-549 [28]) [nM] | EC50, CellTiter-Glo (CAL-51 [30]) [nM] | also measured |
| --- | --- | --- | --- | --- | --- | --- | --- | --- | --- | --- | --- | --- | --- | --- | --- | --- | --- | --- | --- | --- | --- |
| Cc1sc2c(c1C)C(c1ccc(Cl)cc1)=N[C@@H](CC(=O)OC(C)(C)C)c1nnc(C)n1-2 [(+)JQ1] | 2020 | 2330 | 1830 | 122 | 468 | 114 | 265 | 337 | 320 | 447 | 753 | 126 | 720 | 749 | 231 | 653 | 956 | 316 | 167 | 7440 | EC50, CellTox Green (CAL-148 [1]): 687 nM; EC50, CellTox Green (HCC1937 [2]): 10 nM; EC50, CellTiter-Blue viability (HCC1599 [6]): 406 nM; EC50, CellTiter-Blue viability (HCC1143 [7]): 354 nM; EC50, CellTiter-Blue viability (MFM-223 [14]): 243 nM; EC50, CellTiter-Blue viability (MDA-MB-468 [15]): 871 nM; EC50, CellTiter-Glo (MCF-10A [17]): 254 nM; EC50, CellTiter-Glo (CAL-148 [19]): 920 nM; EC50, CellTiter-Glo (SK-BR-3 [27]): 494 nM; EC50, CellTiter-Glo (MFM-223 [29]): 481 nM; EC50, CellTiter-Blue viability (MDA-MB-453 [31]): 172 nM; EC50, CellTiter-Blue viability (CAL-148 [32]): 676 nM; EC50, CellTiter-Blue viability (DU-4475 [33]): 339 nM; EC50, CellTiter-Blue viability (CAL-85-1 [34]): 254 nM; EC50, CellTiter-Blue viability (CAL-51 [35]): 1040 nM |
| Cn1cc(C2=Nc3cc(NC(=O)C(N)C4CCCCC4)cc4c3C2=CNNC4=O)cn1 (configuration not stated) | 88.9 | 1130 | 5280 |  |  |  |  |  |  | 109 | 1730 | 387 | 3870 | 1430 | 5050 | 1410 | 9440 | 293 | 397 | 2380 | EC50, CellTox Green (MDA-MB-453 [36]): 7250 nM; EC50, CellTox Green (MCF-10A [37]): 89.5 nM; EC50, CellTox Green (Hs578T [38]): 9610 nM; EC50, CellTox Green (MDA-MB-231 [39]): 255 nM; EC50, CellTox Green (BT-549 [40]): 7370 nM; EC50, CellTox Green (HDQ-P1): 1000 nM; EC50, CellTox Green (MFM-223 [41]): 3030 nM; EC50, CellTiter-Glo (MCF-10A [17]): 2700 nM; EC50, CellTiter-Glo (HCC1599 [42]): 130 nM; EC50, CellTiter-Glo (SK-BR-3 [27]): 193 nM; EC50, CellTiter-Glo (MFM-223 [29]): 109 nM |
| CC1(C)CCC(CN2CCN(c3ccc(C(=O)NS(=O)(=O)c4ccc(NCC5CCOCC5)c([N+](=O)[O-])c4)c(Oc4cnc5[nH]ccc5c4)c3)CC2)=C(c2ccc(Cl)cc2)C1 [ABT-199] |  |  | 3.5 |  |  |  |  |  |  |  |  |  |  |  |  |  |  |  |  | 702 | EC50, CellTox Green (CAL-120 [43]): > 10000 nM |
| Nc1nc2[nH]cnc2c(=S)[nH]1 [Thioguanine] |  |  |  | 6560 | 6660 | 1140 | 212 | 9940 | 9860 | 4690 | 4320 | 1350 | 729 | 4730 | 1320 | 491 | 4330 | 841 | 9550 | 2310 | EC50, CellTiter-Blue viability (MDA-MB-436 [44]): 667 nM; EC50, CellTiter-Blue viability (MDA-MB-468 [15]): 748 nM; EC50, CellTiter-Glo (HCC1599 [42]): 3450 nM; EC50, CellTiter-Glo (CAL-148 [19]): 1720 nM; EC50, CellTiter-Blue viability (CAL-148 [32]): 6600 nM; EC50, CellTiter-Blue viability (CAL-85-1 [34]): 1350 nM; EC50, CellTiter-Blue viability (CAL-51 [35]): > 10000 nM |

— the supplement of paper PMC4862054
